Test results taken from publication PMC9855884, “Glycosylated Lipopeptides—Synthesis and Evaluation of Antimicrobial Activity and Cytotoxicity” (Biomolecules, 2023).
Converted amounts (≈) assume the structure as drawn. Where a SMILES comes first, the peptide text is derived from it. The star is where a group is joined. βGlcNAc = CC(=O)N[C@@H]1[C@@H](O)[C@H](O)[C@@H](CO)O[C@H]1*; Stearoyl = CCCCCCCCCCCCCCCCCC(=O)*

Legend:
K. pneumoniae biofilm = type: cell-based, Klebsiella pneumoniae; settings: 24 h
Procedure: (§1) The Acinetobacter baumannii ATCC BAA-1605, Enterococcus faecium ATCC 700221, Klebsiella aerogenes ATCC 13048, Klebsiella pneumoniae ATCC 700603, Pseudomonas aeruginosa ATCC 9027, Staphylococcus aureus ATCC 33591, Candida glabrata ATCC 15126, strains were acquired from the American Type Culture Collection (ATCC). All the strains were stored at −80 °C in Roti-Store cryo vials and were transferred into fresh Mueller–Hinton broth (MHB, Becton Dickinson, Warsaw, Poland) for bacteria or RPMI-1640 (Sigma-Aldrich, Steinheim, Germany) for fungi before the tests and incubated for 24 h at 37 °C. Then, the cultures were seeded on the Mueller–Hinton agar (BioMaxima, Lublin, Poland) or Sabouraud dextrose agar (SDA, BioMaxima, Lublin, Poland) plates, respectively, and incubated as just mentioned. These agar cultures were used for further microbiological assays. Cell densities for all assays were adjusted spectrophotometrically (Multiskan GO Microplate Spectrophotometer, Thermo Fisher Scientific, Vantaa, Finland) at 600 and 530 nm for bacteria and fungi, respectively.
(§2) The MBECs were determined as previously described, using 96-well polystyrene flat-bottom plates. For this purpose, 24 h cultures of microorganisms were diluted to obtain a final density of 5.0 × 10^5 CFU/mL and 2.0 × 10^5 CFU/mL of bacteria and fungi, respectively. Microorganisms were diluted in MHB or RPMI-1640 with 2% D-glucose (bacteria and fungi, respectively). Briefly, 100 µL of cell suspension was added into the test plates. After 24 h of incubation at 37 °C, the wells were rinsed three times with a phosphate buffer saline (PBS, pH 7.4) to remove non-adherent cells. Subsequently, 100 μL of the test compounds over the concentration range (1–512 μg/mL) were added to each well. After 24 h of incubation at 37 °C, 20 μL of a cell viability reagent was added (resazurin, 4 g/L; Sigma Aldrich, St. Louis, MO, USA). The MBEC was read after 1 h. The determined values were recorded as the lowest concentration at which the reduction of resazurin (from blue to pink) […]. All experiments were conducted in triplicate.

K. aerogenes ATCC 13048 = type: cell-based, Klebsiella aerogenes; settings: ATCC 13048, 18 h
Procedure: as §1
(§3) The MICs were determined using a broth microdilution method according to the Clinical and Laboratory Standard Institute guidelines. For this purpose, initial inoculums of bacteria (5 × 10^5 CFU/mL) in MHB and yeasts (2 × 10^3 CFU/mL) in RPMI-1640 with 2% D-glucose were exposed to the ranging concentration of lipopeptides (1–512 μg/mL) and incubated at 37 °C for 18 h and 24 h, respectively. The experiments were conducted on 96-well microtiter polystyrene plates (Kartell, Italy). The growth was assessed visually after incubation and the MIC was assumed as the lowest peptide concentration at which a noticeable growth of microorganisms was inhibited. All experiments were conducted in triplicate.

C. glabrata biofilm = type: cell-based, Candida glabrata; settings: 24 h
Procedure: as §1, §2

E. faecium ATCC 700221 = type: cell-based, Enterococcus faecium; settings: ATCC 700221, 18 h
Procedure: as §1, §3

[1] = tested on: A. baumannii ATCC BAA 1605; type: cell-based, Acinetobacter baumannii; settings: ATCC BAA 1605, 18 h
Procedure: as §1, §3

MTT assay, cytotoxicity = type: cell-based, human; settings: human, HaCaT keratinocytes, 24 h incubation at 37 °C, 0.5–500 μg/mL, six replicates per concentration, repeated at least twice
Procedure: To evaluate the cytotoxicity of the test peptides (IC50), the classic MTT assay on 96-well plates was performed for human keratinocytes (HaCaT) which were acquired from the ATCC. The assay was based on colorimetric determination of the cell metabolic activity where the color intensity reflected the number of live cells that could be measured spectrophotometrically. The cell line was cultured in a Dulbecco’s modified Eagle Medium (Invitrogen) supplemented with 10% fetal bovine serum (v/v), 100 units/mL of penicillin, 100 μg/mL of streptomycin, and 2 mM L-glutamine and was kept at 37 °C in a humidified 5% CO2 incubator. Briefly, a day after plating of 500 cells per well, a series of concentrations (0.5–500 μg/mL) of the test compounds were applied. DMSO was added to the control cells at a final concentration of 1.0% (v/v), which was related to the maximum concentration of the solvent compounds used in the experiment. After 24 h of incubation at 37 °C (humidified 5% CO2 incubator) with the peptides, a medium containing 1 mg/mL of MTT was added to the wells up to a final concentration of 0.5 mg/mL. Subsequently, the plates were incubated at 37 °C for 4 h. Then, the medium was aspirated, and the formazan product was solubilized with DMSO. The background absorbance at 630 nm was subtracted from that at 570 nm for each well (Epoch, BioTek Instruments, Winooski, VT, USA). Six replicates were conducted for each concentration. All experiments were repeated at least twice and the resulting IC50 values were calculated with a GraFit 7 software (v. 7.0, Erithacus, Berkley, CA, USA).
The selectivity indexes were calculated for all the strains as IC50/MIC. According to IC50, in most cases, glycosylation caused only a slight decrease in toxicity. However, in contrast with SI calculated for HC50, the differences between USCLs and gUSCLs are not so distinct. […] Moreover, toxicity of USCLs and gUSCLs is high and exceeds their antimicrobial activity. The lipopetides were not selective against Gram-negative strains (K. pneumoniae, A. baumannii, P. aeruginosa, K. aerogenes) over human cells. A few USCLs were selective (SI > 1) against E. faecium and S. aureus with SI up to 1.87; and some gUSCLs were selective against E. faecium but not against S. aureus, with SI between 0.63 and 1.73. […] In this case, SI of gUSCLs was noticeably […] than that of corresponding parent USCLs (2.07, 1.99, 2.67 vs. 2.53, 2.36, 3.46, respectively). Selectivity indexes were plotted against adjusted retention time (Figures S15–S21). A moderate linear correlation was found in USCLs and K. pneumoniae, C. glabrata, and gUSCLs and K. pneumoniae, K. aerogenes (R^2 between 0.6064 and 0.6481). A relatively high linear correlation was obtained for USCLs and K. aerogenes (R^2 of 0.8214) and also for gUSCLs and C. glabrata (R^2 of 0.9223).

P. aeruginosa ATCC 9027 = type: cell-based, Pseudomonas aeruginosa; settings: ATCC 9027, 18 h
Procedure: as §1, §3

[2] = tested on: K. pneumoniae ATCC 700603; type: cell-based, Klebsiella pneumoniae; settings: ATCC 700603, 18 h
Procedure: as §1, §3

S. aureus ATCC 33591 = type: cell-based, Staphylococcus aureus; settings: ATCC 33591, 18 h
Procedure: as §1, §3

SMILES | MIC (K. aerogenes ATCC 13048) | MIC (E. faecium ATCC 700221) | MIC [1] | MIC (P. aeruginosa ATCC 9027) | MIC [2] | MIC (S. aureus ATCC 33591) | MBEC (K. pneumoniae biofilm) | MBEC (C. glabrata biofilm) | IC50 at 24 h (MTT assay, cytotoxicity)
CCCCCCCCCCCCCCCCCC(=O)N[C@@H](CO)C(=O)N[C@@H](CCCNC(=N)N)C(=O)N[C@@H](CCCNC(=N)N)C(N)=O [Peptide 7, C18-SRR-NH2] (Stearoyl-Ser-Arg-Arg-NH2) | 16 µg/mL (≈ 23.4 µM) | 8 µg/mL (≈ 11.7 µM) | 32 µg/mL (≈ 46.9 µM) | 64 µg/mL (≈ 93.7 µM) | 16 µg/mL (≈ 23.4 µM) | 16 µg/mL (≈ 23.4 µM) | 512 µg/mL | 128 µg/mL | 8.28 ± 1.18 µg/mL (≈ 12.1 µM)
CCCCCCCCCCCCCCCCCC(=O)N[C@@H](CCCNC(=N)N)C(=O)N[C@@H](CCCNC(=N)N)C(=O)N[C@@H](CO)C(N)=O [Peptide 9, C18-RRS-NH2] (Stearoyl-Arg-Arg-Ser-NH2) | 32 µg/mL (≈ 46.9 µM) | 8 µg/mL (≈ 11.7 µM) | 32 µg/mL (≈ 46.9 µM) | 64 µg/mL (≈ 93.7 µM) | 16 µg/mL (≈ 23.4 µM) | 8 µg/mL (≈ 11.7 µM) | 512 µg/mL | 128 µg/mL | 10.7 ± 1.61 µg/mL (≈ 15.6 µM)
CCCCCCCCCCCCCCCCCC(=O)N[C@@H](CCCNC(=N)N)C(=O)N[C@@H](CO)C(=O)N[C@@H](CCCNC(=N)N)C(N)=O [Peptide 8, C18-RSR-NH2] (Stearoyl-Arg-Ser-Arg-NH2) | 32 µg/mL (≈ 46.9 µM) | 8 µg/mL (≈ 11.7 µM) | 64 µg/mL (≈ 93.7 µM) | 64 µg/mL (≈ 93.7 µM) | 32 µg/mL (≈ 46.9 µM) | 16 µg/mL (≈ 23.4 µM) | 512 µg/mL | 128 µg/mL | 7.97 ± 1.51 µg/mL (≈ 11.7 µM)

More lines, main results first:

MIC (K. aerogenes ATCC 13048) | MIC (E. faecium ATCC 700221) | MIC [1] | MIC (P. aeruginosa ATCC 9027) | MIC [2] | MIC (S. aureus ATCC 33591) | SMILES | MBEC (K. pneumoniae biofilm) | MBEC (C. glabrata biofilm) | IC50 at 24 h (MTT assay, cytotoxicity)
32 µg/mL (≈ 36.1 µM) | 16 µg/mL (≈ 18.1 µM) | 16 µg/mL (≈ 18.1 µM) | 32 µg/mL (≈ 36.1 µM) | 64 µg/mL (≈ 72.2 µM) | 16 µg/mL (≈ 18.1 µM) | CCCCCCCCCCCCCCCCCC(=O)N[C@@H](CO[C@@H]1O[C@H](CO)[C@@H](O)[C@H](O)[C@H]1NC(C)=O)C(=O)N[C@@H](CCCNC(=N)N)C(=O)N[C@@H](CCCNC(=N)N)C(N)=O [Peptide 16, C18-S(GlcNAc)RR-NH2] (Stearoyl-Ser(βGlcNAc)-Arg-Arg-NH2) | 256 µg/mL | 64 µg/mL | 10.1 ± 0.66 µg/mL (≈ 11.4 µM)
32 µg/mL (≈ 36.1 µM) | 8 µg/mL (≈ 9.03 µM) | 16 µg/mL (≈ 18.1 µM) | 32 µg/mL (≈ 36.1 µM) | 16 µg/mL (≈ 18.1 µM) | 16 µg/mL (≈ 18.1 µM) | CCCCCCCCCCCCCCCCCC(=O)N[C@@H](CCCNC(=N)N)C(=O)N[C@@H](CO[C@@H]1O[C@H](CO)[C@@H](O)[C@H](O)[C@H]1NC(C)=O)C(=O)N[C@@H](CCCNC(=N)N)C(N)=O [Peptide 17, C18-RS(GlcNAc)R-NH2] (Stearoyl-Arg-Ser(βGlcNAc)-Arg-NH2) | 256 µg/mL | 64 µg/mL | 9.45 ± 0.89 µg/mL (≈ 10.7 µM)
32 µg/mL (≈ 36.1 µM) | 8 µg/mL (≈ 9.03 µM) | 32 µg/mL (≈ 36.1 µM) | 32 µg/mL (≈ 36.1 µM) | 32 µg/mL (≈ 36.1 µM) | 16 µg/mL (≈ 18.1 µM) | CCCCCCCCCCCCCCCCCC(=O)N[C@@H](CCCNC(=N)N)C(=O)N[C@@H](CCCNC(=N)N)C(=O)N[C@@H](CO[C@@H]1O[C@H](CO)[C@@H](O)[C@H](O)[C@H]1NC(C)=O)C(N)=O [Peptide 18, C18-RRS(GlcNAc)-NH2] (Stearoyl-Arg-Arg-Ser(βGlcNAc)-NH2) | 128 µg/mL | 128 µg/mL | 13.8 ± 1.71 µg/mL (≈ 15.6 µM)
